One test has as its target T1, ErbB2 or EGFR.
T1 construct: enzymes purified from a baculovirus expression system; Reagent production was conducted essentially as described in Brignola, P. S., et al, (2002) J. Biol. Chem. 277(2): 1576-1585
As to the kind of experiment: ErbB family substrate phosphorylation enzyme assay (HTRF), Method A or Method B. The test is classed as biochemical. In a few lines:
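Baculovirus-expressed EGFR or ErbB2 (0.8 or 10 nM in enzyme mix) phosphorylates biotinylated Peptide C with 20 µM ATP and 0.8 µM peptide (substrate-mix levels), MnCl2, pH 7.5. Reaction ran 90 min at 20 °C with EDTA stop and HTRF anti-phosphotyrosine read. Method A: enzyme added last; Method B: 1 h enzyme–compound preincubation.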
A general note: In TR-FRET formats the signal depends on donor and acceptor labels being close together.

Test [1] relates to BT474 and HN5 tumor cell lines. The experiment in a line: Methylene blue growth inhibition assay (cellular Method A). The test is classed as cell-based, Human. Particulars: Homo sapiens, BT-474, 72 h, 3 days, read-out: Activity (Method): growth inhibition IC50 class. In a few lines: (§1)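 Growth inhibition measured by methylene blue staining of biomass (OD 620) after 3 days' compound exposure at 37° C, final DMSO 0.3%. Cell lines: BT474 (10,000/well), HN5 (3,000/well) and Colo205, all in DMEM with 10% FBS; IC50 fitted by nonlinear regression against vehicle-treated wells.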

In the next test the test system is Colo205 tumor cell lines. The experiment in a line: Methylene blue growth inhibition assay (cellular Method A), Colo205. The test is classed as cell-based, Human. Conditions: Homo sapiens, COLO 205, 72 h, 3 days, read-out: Activity (Method): growth inhibition IC50 class. In a few lines: as §1
Where [2] appears, read: Method B: enzyme mix pre-incubated with compound 1 hour at 20° C., started with substrate mix.
Setting [3] is: Method A: substrate mix added first, reaction started with enzyme mix.

The structures appear in SMILES notation.

What is called IC50 is the midpoint of a concentration-inhibition curve. Consider `O=C1COc2ccc(Nc3nccc(-c4c(-c5cccc(NC(=O)c6c(F)cccc6F)c5)nn5ccccc45)n3)cc2N1` [Example 197, 2,6-Difluoro-N-[3-(3-{2-[(3-oxo-3,4-dihydro-2H-1,4-benzoxazin-6-yl)amino]-4-pyrimidinyl}pyrazolo[1,5-a]pyridin-2-yl)phenyl]benzamide], for which, at ErbB2 or EGFR (setting [2]), the “Activity (Method): pIC50 class against ErbB2 or EGFR” value (from here on “Activity (Method): pIC50 class”) is recorded as “+++ (B) (at least one pIC50 measurement of greater than 7 against either ErbB2 or EGFR)”. Further, the IC50 in test [1] was below 0.1 µM; with Colo205 tumor cell lines it was 0.1 to 1 µM.
Consider `O=C(Nc1cccc(-c2nn3ccccc3c2-c2ccnc(Nc3cccc(OCCN4CCOCC4)c3)n2)c1)c1c(F)cccc1F` [Example 60, 2,6-Difluoro-N-[3-(3-{2-[(3-{[2-(4-morpholinyl)ethyl]-oxy}phenyl)amino]-4-pyrimidinyl}pyrazolo[1,5-a]pyridin-2-yl)phenyl]benzamide], for which the “Activity (Method): pIC50 class” value on ErbB2 or EGFR (setting [2]) is “+++ (B) (at least one pIC50 measurement of greater than 7 against either ErbB2 or EGFR)”. Also, the IC50 in test [1] is below 0.1 µM; with Colo205 tumor cell lines it was 0.1 to 1 µM.
Take `CN(C)CCCNc1ccc(Nc2nccc(-c3c(-c4cccc(NC(=O)c5c(F)cccc5F)c4)nn4ccccc34)n2)cc1F` [Example 41, N-[3-(3-{2-[(4-{[3-(dimethylamino)propyl]amino}-3-fluorophenyl)amino]-4-pyrimidinyl}pyrazolo[1,5-a]pyridin-2-yl)phenyl]-2,6-difluorobenzamide]: at ErbB2 or EGFR (setting [2]), the “Activity (Method): pIC50 class” value was “+++ (B) (at least one pIC50 measurement of greater than 7 against either ErbB2 or EGFR)”. The results for the half-inhibitory concentration (IC50) (in test [1]; with Colo205 tumor cell lines) were below 0.1 µM and 0.1 to 1 µM, respectively.
Take `NC1Cc2ccc(Nc3nccc(-c4c(-c5cccc(NC(=O)c6c(F)cccc6F)c5)nn5ccccc45)n3)cc2C1` (stereo not drawn) [Example 177, N-[3-(3-{2-[(2-Amino-2,3-dihydro-1H-inden-5-yl)amino]-4-pyrimidinyl}pyrazolo[1,5-a]pyridin-2-yl)phenyl]-2,6-difluorobenzamide]: the “Activity (Method): pIC50 class” value on ErbB2 or EGFR (setting [2]) is given as “+++ (B) (at least one pIC50 measurement of greater than 7 against either ErbB2 or EGFR)”. The IC50 in test [1] is below 0.1 µM; in the test with Colo205 tumor cell lines, 0.1 to 1 µM.
Regarding `COc1cccc(Nc2nccc(-c3c(-c4cccc(NC(=O)c5c(F)cccc5F)c4)nn4ccccc34)n2)c1` [Example 28, 2,6-Difluoro-N-{3-[3-(2-{[3-(methyloxy)phenyl]-amino}-4-pyrimidinyl)pyrazolo[1,5-a]pyridin-2-yl]phenyl}benzamide], on ErbB2 or EGFR (setting [2]), the “Activity (Method): pIC50 class” value is recorded as “+++ (B) (at least one pIC50 measurement of greater than 7 against either ErbB2 or EGFR)”. For the same molecule, the values for the 50% inhibitory concentration (IC50) (in test [1]; in the test on Colo205 tumor cell lines) were below 0.1 µM and 0.1 to 1 µM, respectively.
For `O=C(Nc1cccc(-c2nn3ccccc3c2-c2ccnc(Nc3ccc(CCN4CCOCC4)cc3)n2)c1)c1c(F)cccc1F` [Example 56, 2,6-Difluoro-N-(3-{3-[2-({4-[2-(4-morpholinyl)ethyl]-phenyl}amino)-4-pyrimidinyl]pyrazolo[1,5-a]pyridin-2-yl}phenyl)benzamide] the same measures were “+++ (B) (at least one pIC50 measurement of greater than 7 against either ErbB2 or EGFR)”, below 0.1 µM and 0.1 to 1 µM.
For `C=CCN(C)CCOc1cccc(Nc2nccc(-c3c(-c4cccc(NC(=O)c5cc(F)ccc5F)c4)nn4ccccc34)n2)c1` [Example 196, 2,5-Difluoro-N-{3-[3-(2-{[3-({2-[methyl(2-propen-1-yl)amino]ethyl}oxy)phenyl]amino}-4-pyrimidinyl)pyrazolo[1,5-a]pyridin-2-yl]phenyl}benzamide], on ErbB2 or EGFR (setting [2]), the “Activity (Method): pIC50 class” value is given as “+++ (B) (at least one pIC50 measurement of greater than 7 against either ErbB2 or EGFR)”. In addition, the IC50 in test [1] is below 0.1 µM; with Colo205 tumor cell lines, 0.1 to 1 µM.
With `O=C(Nc1ccccc1)Nc1cccc(-c2nn3ccccc3c2-c2ccnc(Nc3ccc4c(c3)OCCO4)n2)c1` [Example 1, 1-(3-{3-[2-(2,3-Dihydro-benzo[1,4]dioxin-6-ylamino)-pyrimidin-4-yl]-pyrazolo[1,5-]pyridin-2-yl}-phenyl)-3-phenyl-urea], the “Activity (Method): pIC50 class” value at ErbB2 or EGFR (setting [3]) was “++ (A) (at least one pIC50 measurement greater than 6 against either ErbB2 or EGFR but no measurement greater than pIC50 of 7)”. In addition, the concentration for half-maximal inhibition (IC50) (in test [1]; in the test with Colo205 tumor cell lines) was above 1 µM in each case.
Consider `O=C(Nc1cccc(-c2nn3ccccc3c2-c2ccnc(Nc3ccc4c(c3)CNCC4)n2)c1)c1ccccc1` [Example 62, N-(3-{3-[2-(1,2,3,4-Tetrahydro-7-isoquinolinylamino)-4-pyrimidinyl]pyrazolo[1,5-a]pyridin-2-yl}phenyl)benzamide], for which the “Activity (Method): pIC50 class” value on ErbB2 or EGFR (setting [2]) is “+++ (B) (at least one pIC50 measurement of greater than 7 against either ErbB2 or EGFR)”. The figures for the IC50 (in test [1]; in the test with Colo205 tumor cell lines) were below 0.1 µM and above 1 µM, respectively.
`O=C(Nc1cccc(-c2nn3ccccc3c2-c2ccnc(Nc3ccccc3)n2)c1)c1cc(F)ccc1F` [Example 43, 2,5-Difluoro-N-(3-{3-[2-(phenylamino)-4-pyrimidinyl]pyrazolo[1,5-a]pyridin-2-yl}phenyl)benzamide]: the “Activity (Method): pIC50 class” value on ErbB2 or EGFR (setting [3]) is on record as “+++ (A) (at least one pIC50 measurement of greater than 7 against either ErbB2 or EGFR)”. Also, the half-maximal inhibitory concentration (IC50) is 0.1 to 1 µM in test [1] and above 1 µM in the test with Colo205 tumor cell lines.
With `Cc1ccc(F)cc1C(=O)Nc1cccc(-c2nn3ccccc3c2-c2ccnc(Nc3cccc(F)c3)n2)c1` [Example 83, 5-Fluoro-N-[3-(3-{2-[(3-fluorophenyl)amino]-4-pyrimidinyl}pyrazolo[1,5-a]pyridin-2-yl)phenyl]-2-methylbenzamide], the “Activity (Method): pIC50 class” value on ErbB2 or EGFR (setting [3]) is recorded as “++ (A) (at least one pIC50 measurement greater than 6 against either ErbB2 or EGFR but no measurement greater than pIC50 of 7)”. In addition, the IC50 in test [1] is 0.1 to 1 µM; in the test on Colo205 tumor cell lines, above 1 µM.
Regarding `O=C(Nc1cccc(-c2nn3ccccc3c2-c2ccnc(Nc3cccc(O)c3)n2)c1)c1c(F)cccc1F` [Example 59, 2,6-Difluoro-N-[3-(3-{2-[(3-hydroxyphenyl)amino]-4-pyrimidinyl}pyrazolo[1,5-a]pyridin-2-yl)phenyl]benzamide], the “Activity (Method): pIC50 class” value at ErbB2 or EGFR (setting [2]) is listed as “+++ (B) (at least one pIC50 measurement of greater than 7 against either ErbB2 or EGFR)”. Also, the IC50 in test [1] is below 0.1 µM; in the test with Colo205 tumor cell lines, above 1 µM.
For `CN(C)CCCOc1cccc(Nc2nccc(-c3c(-c4cccc(NC(=O)c5c(F)cccc5F)c4)nn4ccccc34)n2)c1` [Example 198, N-[3-(3-{2-[(3-{[3-(dimethylamino)propyl]oxy}phenyl)amino]-4-pyrimidinyl}pyrazolo[1,5-a]pyridin-2-yl)phenyl]-2,6-difluorobenzamide], the “Activity (Method): pIC50 class” value on ErbB2 or EGFR (setting [2]) is reported as “+++ (B) (at least one pIC50 measurement of greater than 7 against either ErbB2 or EGFR)”. Moreover, the IC50 in test [1] was below 0.1 µM; in the test with Colo205 tumor cell lines, 0.1 to 1 µM.
For `O=C(Nc1cccc(-c2nn3ccccc3c2-c2ccnc(Nc3ccc(OCCCS(=O)(=O)O)c(Cl)c3)n2)c1)c1c(F)cccc1F` [Example 161, 3-{[2-Chloro-4-({4-[2-(3-{[(2,6-difluorophenyl)carbonyl]amino}-phenyl)pyrazolo[1,5-a]pyridin-3-yl]-2-pyrimidinyl}amino)phenyl]oxy}-1-propanesulfonic acid], on ErbB2 or EGFR (setting [2]), the “Activity (Method): pIC50 class” value was “+++ (B) (at least one pIC50 measurement of greater than 7 against either ErbB2 or EGFR)”. For the same molecule, the IC50 (in test [1]; in the test with Colo205 tumor cell lines) was above 1 µM each time.
Turning to `O=C(Nc1cccc(-c2nn3ccccc3c2-c2ccnc(Nc3ccc4c(c3)OCCO4)n2)c1)c1ccccc1` [Example 4, N-(3-{3-[2-(2,3-Dihydro-benzo[1,4]dioxin-6-ylamino)-pyrimidin-4-yl]-pyrazolo[1,5-]pyridin-2-yl}-phenyl)-benzamide], the “Activity (Method): pIC50 class” value at ErbB2 or EGFR (setting [3]) was “+++ (A) (at least one pIC50 measurement of greater than 7 against either ErbB2 or EGFR)”. Moreover, the IC50 in test [1] was below 0.1 µM; in the test with Colo205 tumor cell lines, 0.1 to 1 µM.
On to `CN(C)CC(=O)Nc1cccc(Nc2nccc(-c3c(-c4cccc(NC(=O)c5c(F)cccc5F)c4)nn4ccccc34)n2)c1` [Example 110, N-(3-{3-[2-({3-[(N,N-dimethylglycyl)amino]phenyl}-amino)-4-pyrimidinyl]pyrazolo[1,5-a]pyridin-2-yl}phenyl)-2,6-difluorobenzamide], for which the “Activity (Method): pIC50 class” value on ErbB2 or EGFR (setting [2]) is given as “+++ (B) (at least one pIC50 measurement of greater than 7 against either ErbB2 or EGFR)”. In addition, the IC50 (in test [1]; with Colo205 tumor cell lines) was 0.1 to 1 µM each time.
Turning to `O=C(Nc1cccc(-c2nn3ccccc3c2-c2ccnc(Nc3cccc(F)c3)n2)c1)c1cccs1` [Example 25, N-[3-(3-{2-[(3-fluorophenyl)amino]-4-pyrimidinyl}pyrazolo[1,5-a]pyridin-2-yl)phenyl]-2-thiophenecarboxamide], the “Activity (Method): pIC50 class” value at ErbB2 or EGFR (setting [2]) is “+++ (B) (at least one pIC50 measurement of greater than 7 against either ErbB2 or EGFR)”. Moreover, the IC50 was 0.1 to 1 µM in test [1] and above 1 µM with Colo205 tumor cell lines.

The values are drawn from patent US7812022B2 (GlaxoSmithKline LLC, priority 2004, dated 2010).
